Where two headings read alike, the source gives them in different places.
Key:
[1] = 24 volunteers, 0.078 mg/kg CBD + […] THC, cited from earlier work
[2] = 12 healthy volunteers; chocolate cookies with 0.57 mg/kg CBD + 0.28 mg/kg THC; after 1.5–3 h; cited from earlier work
[3] = Whole-blood pharmacokinetics of CBD and THC after single oral dose of Cannabis sativa extract; conditions: for CBD levels in whole blood: range of levels; for concentration at 0.5 h / concentration at 1 h / concentration at 2 h / concentration at 4 h / concentration at 6 h / concentration at 24 h / AUC(0-t) / Cmax / MRT / Tmax / CL / Vd: whole blood; for concentration at 0.5 h / concentration at 1 h / concentration at 2 h / concentration at 4 h / concentration at 6 h / concentration at 24 h: oral; for AUC(0-t): AUC0–24, whole blood
[4] = Brain pharmacokinetics of CBD and THC after single oral dose of Cannabis sativa extract; conditions: for mean concentration over time: Table 7; for AUC(0-t): AUC0–24, brain
[5] = rats; oral CBD 120 mg/kg in Cremophor; cited from earlier work
[6] = mice; oral CBD 120 mg/kg in Cremophor; cited from earlier work
[7] = cited from earlier work
[8] = 1 h after gelatin capsules with extract
[9] = male, Wistar, rat, 30 mg/kg, Mean Concentration ± SD, blood, Rapae oleum, single oral dose of extract 30 mg/kg
[10] = male, Wistar, rat, 30 mg/kg, Mean Concentration, blood, Cremophor, single oral dose of extract 30 mg/kg
[11] = male, Wistar, rat, 30 mg/kg, mean concentration over time, Blood/Cremophor, single oral dose of extract 30 mg/kg, Table 7
[12] = male, Wistar, rat, 30 mg/kg, mean concentration over time, Blood/Rapae Oleum, single oral dose of extract 30 mg/kg, Table 7
[13] = male, Wistar, rat, po, 30 mg/kg, Cremophor, single oral dose of extract 30 mg/kg
[14] = male, Wistar, rat, po, 30 mg/kg, Rapae oleum, single oral dose of extract 30 mg/kg
[15] = Cremophor, single oral dose of extract 30 mg/kg
[16] = Rapae oleum, single oral dose of extract 30 mg/kg
[17] = male, Wistar, rat, brain, po, 30 mg/kg, Cremophor, single oral dose of extract 30 mg/kg
[18] = male, Wistar, rat, brain, po, 30 mg/kg, Rapae oleum, single oral dose of extract 30 mg/kg

With `C=C(C)[C@@H]1CCC(C)=C[C@H]1c1c(O)cc(CCCCC)cc1O` [CBD, cannabidiol] as the molecule, how does the “levels in whole blood (average)” value [1, 8] read?
The value was 0.93 ng/mL.

What about the “levels in whole blood (range)” value [1, 8] of the same molecule?
The value was 0.3 to 2.6 ng/mL.

What about the “time detectable after administration” value ([1]; gelatin capsules with extract) of the same molecule?
The value was 3 to 4 h.

What about the whole-blood concentration [2] of the same molecule?
The whole-blood concentration was “about 5 ng/mL”.

And the “CBD levels in whole blood” value ([3]; Cremophor)?
The value was 1.43 to 231.43 ng/mL.

And the concentration at 0.5 h [3, 9]?
The concentration at 0.5 h was 26.9 ± 21.5 ng/g.

What about the concentration at 1 h [3, 9] of the same molecule?
Its concentration at 1 h is 107 ± 51 ng/g.

And the concentration at 2 h [3, 9]?
The concentration at 2 h was 334 ± 139 ng/g.

What about the concentration at 4 h [3, 9] of the same molecule?
The concentration at 4 h was 154 ± 146 ng/g.

And the concentration at 6 h [3, 9]?
The concentration at 6 h was 37.6 ± 11.3 ng/g.

And the concentration at 24 h [3, 9]?
Its concentration at 24 h is 2.76 ± 2.12 ng/g.

What about the concentration at 0.5 h [3, 10] of the same molecule?
Its concentration at 0.5 h is 120 ± 93.5 ng/g.

What about the concentration at 1 h [3, 10] of the same molecule?
The concentration at 1 h was 109 ± 35.4 ng/g.

What about the concentration at 2 h [3, 10] of the same molecule?
Its concentration at 2 h is 46.5 ± 15.7 ng/g.

And the concentration at 4 h [3, 10]?
Its concentration at 4 h is 35.1 ± 4.71 ng/g.

What about the concentration at 6 h [3, 10] of the same molecule?
The concentration at 6 h was 31.4 ± 9.28 ng/g.

What about the concentration at 24 h [3, 10] of the same molecule?
Its concentration at 24 h is 12.3 ± 18 ng/g.

What about the concentration at 0.5 h [3, 11] of the same molecule?
The concentration at 0.5 h was 120 ng/mL.

What about the concentration at 1 h [3, 11] of the same molecule?
Its concentration at 1 h is 109 ng/mL.

And the concentration at 2 h [3, 11]?
Its concentration at 2 h is 46.5 ng/mL.

And the concentration at 4 h [3, 11]?
The concentration at 4 h was 35.1 ng/mL.

What about the concentration at 6 h [3, 11] of the same molecule?
Its concentration at 6 h is 31.4 ng/mL.

And the concentration at 24 h [3, 11]?
Its concentration at 24 h is 12.3 ng/mL.

What about the concentration at 0.5 h [3, 12] of the same molecule?
The concentration at 0.5 h was 26.9 ng/mL.

What about the concentration at 1 h [3, 12] of the same molecule?
The concentration at 1 h was 107 ng/mL.

What about the concentration at 2 h [3, 12] of the same molecule?
Its concentration at 2 h is 334 ng/mL.

And the concentration at 4 h [3, 12]?
Its concentration at 4 h is 154 ng/mL.

What about the concentration at 6 h [3, 12] of the same molecule?
Its concentration at 6 h is 37.6 ng/mL.

What about the concentration at 24 h [3, 12] of the same molecule?
Its concentration at 24 h is 2.76 ng/mL.

What about the AUC(0-t) [3, 13] of the same molecule?
The AUC(0-t) was 988 ng·h/mL.

And the AUC(0-t) [3, 14]?
Its AUC(0-t) is 1290 ng·h/mL.

What about the Cmax [3, 13] of the same molecule?
Its Cmax is 120 ng/mL.

And the Cmax [3, 14]?
Its Cmax is 334 ng/mL.

What about the MRT [3, 13] of the same molecule?
The MRT was 12 h.

What about the MRT [3, 14] of the same molecule?
Its MRT is 4.03 h.

And the Tmax ([3]; male, Wistar, rat, po, 30 mg/kg, Tmax, Rapae oleum, single oral dose of extract 30 mg/kg)?
Its Tmax is 2 h.

What about the “CBD levels in whole blood” value ([3]; oil (Rapae oleum)) of the same molecule?
Its value is 1.06 to 588.03 ng/mL.

What about the “time concentrations were detectable after administration” value ([3]; single oral dose of extract 30 mg/kg) of the same molecule?
Its value is “up to 24 h”.

What about the CL [3, 15] of the same molecule?
The CL was 7.75 L/h.

What about the Tmax [3, 15] of the same molecule?
Its Tmax is 0.5 h.

What about the Vd [3, 15] of the same molecule?
Its Vd is 69.66 L.

And the CL [3, 16]?
Its CL is 5.85 L/h.

What about the Vd [3, 16] of the same molecule?
Its Vd is 28.29 L.

And the “mean concentration over time” value ([4]; Brain/Cremophor, 0.5 h, single oral dose of extract 30 mg/kg)?
Its value is 274.994.

And the “mean concentration over time” value ([4]; Brain/Cremophor, 1 h, single oral dose of extract 30 mg/kg)?
Its value is 213.491.

And the “mean concentration over time” value ([4]; Brain/Cremophor, 2 h, single oral dose of extract 30 mg/kg)?
Its value is 81.1135.

And the “mean concentration over time” value ([4]; Brain/Cremophor, 4 h, single oral dose of extract 30 mg/kg)?
Its value is 52.1185.

And the “mean concentration over time” value ([4]; Brain/Cremophor, 6 h, single oral dose of extract 30 mg/kg)?
Its value is 57.7145.

And the “mean concentration over time” value ([4]; Brain/Cremophor, 24 h, single oral dose of extract 30 mg/kg)?
Its value is 3.604.

What about the “mean concentration over time” value ([4]; Brain/Rapae oleum, 0.5 h, single oral dose of extract 30 mg/kg) of the same molecule?
Its value is 23.327.

What about the “mean concentration over time” value ([4]; Brain/Rapae oleum, 1 h, single oral dose of extract 30 mg/kg) of the same molecule?
The value was 65.391.

What about the “mean concentration over time” value ([4]; Brain/Rapae oleum, 2 h, single oral dose of extract 30 mg/kg) of the same molecule?
The value was 301.388.

And the “mean concentration over time” value ([4]; Brain/Rapae oleum, 4 h, single oral dose of extract 30 mg/kg)?
Its value is 263.466.

And the “mean concentration over time” value ([4]; Brain/Rapae oleum, 6 h, single oral dose of extract 30 mg/kg)?
The value was 59.650.

And the “mean concentration over time” value ([4]; Brain/Rapae oleum, 24 h, single oral dose of extract 30 mg/kg)?
The value was 9.797.

And the Kp ([4]; male, Wistar, rat, brain / whole blood, po, 30 mg/kg, AUCbrain:AUC whole blood (AUC0–24 ratio), Cremophor, single oral dose of extract 30 mg/kg)?
Its Kp is 0.95.

What about the Kp ([4]; male, Wistar, rat, brain / whole blood, po, 30 mg/kg, AUCbrain:AUC whole blood (AUC0–24 ratio), Rapae oleum, single oral dose of extract 30 mg/kg) of the same molecule?
Its Kp is 1.54.

What about the concentration at 0.5 h ([4]; male, Wistar, rat, brain, oral, 30 mg/kg, Mean Concentration, Cremophor, 0.5 h, single oral dose of extract 30 mg/kg) of the same molecule?
Its concentration at 0.5 h is 275 ± 104 ng/g.

And the concentration at 1 h ([4]; male, Wistar, rat, brain, oral, 30 mg/kg, Mean Concentration, Cremophor, 1 h, single oral dose of extract 30 mg/kg)?
The concentration at 1 h was 213 ± 66.1 ng/g.

And the concentration at 2 h ([4]; male, Wistar, rat, brain, oral, 30 mg/kg, Mean Concentration, Cremophor, 2 h, single oral dose of extract 30 mg/kg)?
Its concentration at 2 h is 81.1 ± 23.4 ng/g.

And the concentration at 4 h ([4]; male, Wistar, rat, brain, oral, 30 mg/kg, Mean Concentration, Cremophor, 4 h, single oral dose of extract 30 mg/kg)?
The concentration at 4 h was 52.1 ± 12.2 ng/g.

And the concentration at 6 h ([4]; male, Wistar, rat, brain, oral, 30 mg/kg, Mean Concentration, Cremophor, 6 h, single oral dose of extract 30 mg/kg)?
Its concentration at 6 h is 57.7 ± 25.9 ng/g.

What about the concentration at 24 h ([4]; male, Wistar, rat, brain, oral, 30 mg/kg, Mean Concentration, Cremophor, 24 h, single oral dose of extract 30 mg/kg) of the same molecule?
The concentration at 24 h was 3.6 ± 0.493 ng/g.

And the Tmax ([4]; male, Wistar, rat, brain, po, 30 mg/kg)?
The Tmax was 2 h.

And the AUC(0-t) [4, 17]?
The AUC(0-t) was 943 ng·h/mL.

And the AUC(0-t) [4, 18]?
Its AUC(0-t) is 1990 ng·h/mL.

And the Cmax [4, 17]?
Its Cmax is 275 ng/g.

What about the Cmax [4, 18] of the same molecule?
Its Cmax is 301 ng/g.

What about the MRT [4, 17] of the same molecule?
The MRT was 6.19 h.

What about the MRT [4, 18] of the same molecule?
Its MRT is 7.76 h.

And the Kp ([4]; male, Wistar, rat, brain/whole blood, oral, 30 mg/kg, brain/whole-blood ratio, Cremophor, present study)?
The Kp was 2.29.

And the “brain peak CBD concentration” value [5]?
Its value is 8.6 µg/g.

And the peak whole-blood concentration [5]?
The peak whole-blood concentration was roughly 2 µg/mL.

And the “brain peak CBD concentration” value [6]?
Its value is 1.3 µg/g.

What about the peak whole-blood concentration [6] of the same molecule?
Its peak whole-blood concentration is roughly 2 µg/mL.

What about the “peak concentration in the blood” value ([7]; oral CBD 120 mg/kg in Cremophor, at 2 h) of the same molecule?
The value was 2 µg/mL.

What about the “peak concentration in the blood” value ([7]; oral CBD 120 mg/kg in Solutol, at 6 h) of the same molecule?
The value was 3.2 µg/mL.

Source: paper PMC10304291, “THC-Reduced Cannabis sativa L.—How Does the Solvent Determine the Bioavailability of Cannabinoids Given Orally?” (Nutrients, 2023)
